# Results taken from US6642256B2, “Piperidine derivatives as subtype selective N-Methyl-D-Aspartate antagonists” (Warner-Lambert Company LLC, priority 2000, dated 2003).
# Where a name gives a salt, the structure may show the parent alone.
# Target: T1, NR1A/NR2B NMDA receptor subtype (Rattus norvegicus, UniProt P35439+Q00960)
# T1 construct: buffy coat membrane fraction was prepared from frozen adult rat forebrains; tissue Zivic-Miller Laboratories, Inc; host or cells: adult rat forebrain membranes
# Test: [3H]Ifenprodil binding assay (IFPNR), rat forebrain membranes
# Settings: Table 1, 4 nM [3H]-ifenprodil, read-out: IFPNR (IC50 μM)
# Description: b. [^3H]Ifenprodil Binding Assay (IFPNR) Protocol:
# Ifenprodil, [phenyl-^3H]-(specific activity, 66.2 Ci/mmol) was purchased from Dupont NEN Research Products (Boston, Mass.). Ifenprodil tartrate was purchased from Research Biochemicals International (Natick, Mass.). HEPES, glutamate and glycine were purchased from Sigma Chemical Co. (St. Louis, Mo.).
# All buffers and reagents used in assay incubations or to dissolve drugs were prepared using water purified through a Milli-Q reverse osmosis system (Millipore Corp., Bedford, Mass.) and treated with UV emissions. Prior to use in the assays buffers were further filtered through a sterile Coming filtration unit (Coming Glass Works, Coming, N.Y.) containing a 0.2 micron filter. Buffer used to rinse the membranes on the assay filters was prepared with purified water, but was not refiltered and was stored no longer than 5 days. Stock solutions of the drugs (usually 10 mM) were dissolved in 20 mM HEPES-KOH buffer pH 7.4 (assay buffer) with the addition of 1 to 5 μL of glacial AcOH, if needed to keep them in solution. Eliprodil was used as the reference NMDA antagonist. A stock solution of eliprodil was prepared, and was buffered with the addition of 10% DMSO. All subsequent dilutions from the stock solution were made in buffer.
# An extensively washed buffy coat membrane fraction was prepared from frozen adult rat forebrains (Zivic-Miller Laboratories, Inc., Zelienople, Pa.) as described by Coughenour L. L.; Cordon, J. J., J. Pharmacol. Exp. Ther., 1997;280:584-592, and stored at −80° C. On the day of the assay, pellets of the frozen membrane fractions were resuspended in 35 mL of assay buffer at pH 7.4 using a POLYTRON (Kinematica A. G. Company, Littau, Switzerland) mixer at setting 6. After incubation at 37° C. for 30 minutes in a shaking water bath, the homogenate was centrifuged 40,000×g for 10 minutes at 4° C. The pellets were resuspended in fresh buffer and centrifuged 3 more times before final suspension for use in the assay.
# (iii) [^3H]Ifenprodil Binding protocol:
# Triplicate incubations were carried out in a volume of 0.5 mL in 1.3 mL polypropylene tubes (Marsh Biomedical Products Inc, Rochester, N.Y.) for 2 hours at room temperature. Incubations contained invention compounds, membranes (100-200 μg protein) and 4 nM [^3H]-ifenprodil in 20 mM HEPES-KOH buffer, pH 7.4 (assay buffer). Assays were started by addition of the membranes. Bound radioligand was separated by filtration under reduced pressure using a TOMTEC Mach II, 96-well cell harvester (Tomtec Inc, Orange, Conn.). Filtration was through Whatman GF/B glass fiber filters (Whatman Ltd., Maidstone, England), which had been soaked for at least 15 minutes in 0.3% polyethylenimine and allowed to air dry. The filters were rinsed with 3 mL of ice cold assay buffer within 6 seconds. Air was allowed to pass through the filters for an additional 10 seconds to remove residual moisture. The filter mat was supported on a cold (−20° C.) TEFLON (E. I. Du Pont de Nemours and Company, Wilmington, Del.) coated support, and filters from individual wells were separated and placed in Mini Poly-Q vials (Becklman Instruments Inc, Fullerton, Calif.) and filled with 4 mL of scintillation cocktail (Beckman Ready Protein^+). Radioactivity retained on the filter was determined by liquid scintillation spectrophotometry. Nonspecific binding was defined as the binding in the presence of […] ifenprodil. Ninety percent of the total binding of ifenprodil was specific binding at the NR1A/NR2B NMDA receptor subtype active site (as opposed to binding at a remote site).
# Binding curves were statistically analyzed for a best 1- or 2-site competition fit using GRAPHPAD PRISM software (GraphPad Software Inc, San Diego, Calif.), a computer program used to analyze and graph scientific data. The normalized data was fitted by nonweighted nonlinear regression to either [formula]
# Control data was entered as 100%, and no parameters were constrained. […]
# T1 sequence (Q00960 27-1482, other chains not shown): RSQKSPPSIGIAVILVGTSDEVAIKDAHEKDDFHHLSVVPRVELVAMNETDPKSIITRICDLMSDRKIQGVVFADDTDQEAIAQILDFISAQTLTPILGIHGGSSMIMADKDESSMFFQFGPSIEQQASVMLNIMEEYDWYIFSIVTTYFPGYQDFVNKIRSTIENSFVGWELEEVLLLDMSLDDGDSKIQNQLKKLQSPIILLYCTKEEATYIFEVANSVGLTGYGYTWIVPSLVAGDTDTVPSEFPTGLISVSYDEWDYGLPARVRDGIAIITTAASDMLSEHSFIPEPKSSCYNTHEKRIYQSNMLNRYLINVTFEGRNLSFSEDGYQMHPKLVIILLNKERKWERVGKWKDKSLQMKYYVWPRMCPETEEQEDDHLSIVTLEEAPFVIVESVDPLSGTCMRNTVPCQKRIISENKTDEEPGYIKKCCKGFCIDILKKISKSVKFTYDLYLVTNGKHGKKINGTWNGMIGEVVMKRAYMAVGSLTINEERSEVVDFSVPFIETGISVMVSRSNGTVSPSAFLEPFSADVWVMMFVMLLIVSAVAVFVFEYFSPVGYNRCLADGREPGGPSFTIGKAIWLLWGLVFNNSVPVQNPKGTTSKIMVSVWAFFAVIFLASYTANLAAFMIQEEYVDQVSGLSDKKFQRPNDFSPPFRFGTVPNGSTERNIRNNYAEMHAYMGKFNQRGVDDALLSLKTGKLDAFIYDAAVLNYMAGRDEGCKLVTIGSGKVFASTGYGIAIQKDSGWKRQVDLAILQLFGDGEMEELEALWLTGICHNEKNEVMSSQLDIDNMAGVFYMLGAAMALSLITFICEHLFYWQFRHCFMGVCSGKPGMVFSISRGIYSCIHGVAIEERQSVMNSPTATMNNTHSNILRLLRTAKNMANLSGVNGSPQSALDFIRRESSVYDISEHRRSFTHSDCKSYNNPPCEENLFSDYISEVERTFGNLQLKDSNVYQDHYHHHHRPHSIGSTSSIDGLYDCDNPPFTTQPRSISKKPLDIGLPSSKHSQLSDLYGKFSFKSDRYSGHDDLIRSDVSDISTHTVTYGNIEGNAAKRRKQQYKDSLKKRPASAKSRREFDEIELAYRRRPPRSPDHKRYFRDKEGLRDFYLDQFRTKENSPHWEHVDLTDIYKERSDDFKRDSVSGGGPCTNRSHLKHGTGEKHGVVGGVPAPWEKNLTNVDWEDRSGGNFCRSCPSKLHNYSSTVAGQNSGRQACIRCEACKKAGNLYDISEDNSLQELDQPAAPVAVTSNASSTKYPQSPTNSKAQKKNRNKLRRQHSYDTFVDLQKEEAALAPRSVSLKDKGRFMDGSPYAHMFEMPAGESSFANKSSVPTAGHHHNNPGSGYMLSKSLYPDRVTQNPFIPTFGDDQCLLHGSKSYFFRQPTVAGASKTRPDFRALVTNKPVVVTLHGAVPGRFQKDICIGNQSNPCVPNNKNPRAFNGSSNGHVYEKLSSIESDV
row,IC50 [µM],Compound
1,0.03,"O=c1[nH]c2ccc(C3=NOC(CN4CCC(Cc5ccc(F)cc5)CC4)C3)cc2o1 (racemic) [Example 3, 6-{5-[4-(4-Fluorobenzyl)piperidin-1-ylmethyl]-4,5-dihydroisoxazol-3-yl}-3H-benzoxazol-2-one hydrochloride]"

# Same assay, conditions: Table 2, 4 nM [3H]-ifenprodil, read-out: IFPNR IC50 μm
row,IC50 [µM],Compound
1,0.54,"O=c1[nH]c2ccc(-c3cnc(CN4CCC(Cc5ccc(F)cc5)CC4)s3)cc2o1 [Example 6, 6-{2-[4-(4-Fluorobenzyl)piperidin-1-ylmethyl]thiazol-5-yl}-3H-benzoxazol-2-one]"
2,0.45,"O=c1[nH]c2ccc(-c3cnc(CN4CCC(Cc5ccc(F)cc5)CC4)s3)cc2s1 [Example 7, 6-{2-[4-(4-Fluorobenzyl)piperidin-1-ylmethyl]thiazol-5-yl}-3H-benzothiazol-2-one]"
3,0.066,"S=c1[nH]c2ccc(-c3cnc(CN4CCC(Cc5ccccc5)CC4)s3)cc2[nH]1 [Example 8, 5-[2-(4-Benzylpiperidin-1-ylmethyl)thiazol-5-yl]-1,3-dihydrobenzimidazole-2-thione]"
4,> 1,"O=c1[nH]c2ccc(-c3cnc(CN4CCC(Cc5ccc(F)cc5)CC4)o3)cc2s1 [Example 9, 6-{2-[4-(4-Fluorobenzyl)piperidin-1-ylmethyl]oxazol-5-yl}-3H-benzothiazol-2-one]"
5,> 1,"O=c1[nH]c2ccc(-c3cnc(CN4CCC(Cc5ccccc5)CC4)o3)cc2o1 [Example 10, 6-[2-(4-Benzylpiperidin-1-ylmethyl)oxazol-5-yl]-3H-benzoxazol-2-one]"
6,> 1,"O=C1Cc2cc(-c3cnc(CN4CCC(Cc5ccccc5)CC4)o3)ccc2N1 [Example 11, 5-[2-(4-Benzylpiperidin-1-ylmethyl)oxazol-5-yl]-1,3-dihydroindol-2-one]"
7,0.394,"O=c1[nH]c2ccc(C3=NCC(CN4CCC(Cc5ccc(F)cc5)CC4)S3)cc2o1 (centres unmarked) [Example 12, 6-{5-[4-(4-Fluorobenzyl)piperidin-1-ylmethyl]-4,5-dihydrothiazol-2-yl}-3H-benzoxazol-2-one]"
8,0.101,"O=c1[nH]c2ccc(C3=NCC(CN4CCC(Cc5ccccc5)CC4)S3)cc2o1 (centres unmarked) [Example 13, 6-[5-(4-Benzylpiperidin-1-ylmethyl)-4,5-dihydrothiazol-2-yl]-3H-benzoxazol-2-one]"

# Same assay, conditions: Table 3, 4 nM [3H]-ifenprodil, read-out: IFPNR IC50
row,IC50 [µM],Compound
1,> 1,"Cc1noc(CN2CCC(Cc3ccccc3)CC2)c1-c1ccc2[nH]c(=O)oc2c1 [Example 2, 6-[5-(4-Benzylpiperidin-1-ylmethyl)-3-methylisoxazol-4-yl]-3H-benzoxazol-2-one]"
2,0.006,"O=c1[nH]c2ccc(C3=NOC(CN4CCC(O)(Cc5ccccc5)CC4)C3)cc2o1 (centres unmarked) [Example 17, 6-[5-(4-Benzyl-4-hydroxypiperidin-1-ylmethyl)-4,5-dihydroisoxazol-3-yl]-3H-benzoxazol-2-one]"
3,0.4,"O=c1[nH]c2ccc(C3=NOC(CCN4CCC(Cc5ccc(F)cc5)CC4)C3)cc2o1 (centres unmarked) [Example 19, 6-(5-{2-[4-(4-Fluorobenzyl)piperidin-1-yl]ethyl}-4,5-dihydroisoxazol-3-yl)-3H-benzoxazol-2-one]"
4,0.008,"O=c1[nH]c2ccc(C3=NOC(CN4CCC(O)(Cc5ccc(F)cc5)CC4)C3)cc2o1 (centres unmarked) [Example 20, 6-{5-[4-(4-Fluorobenzyl)-4-hydroxypiperidin-1-ylmethyl]-4,5-dihydroisoxazol-3-yl}-3H-benzoxazol-2-one]"

# Same assay, conditions: Table 4, 4 nM [3H]-ifenprodil, read-out: IFPNR IC50
row,IC50 [µM],Compound
1,0.6,"O=c1[nH]c2ccc(C3=NOC(CN4CCC([S+]([O-])c5ccc(F)cc5)CC4)C3)cc2o1 (centres unmarked) [Example 29, 6-{5-[4-(4-Fluorobenzenesulfinyl)piperidin-1-ylmethyl]-4,5-dihydroisoxazol-3-yl}-3H-benzoxazol-2-one]"
2,> 1,"O=c1[nH]c2ccc(C3=NOC(CN4CCC(C(O)c5ccc(F)cc5)CC4)C3)cc2o1 (centres unmarked) [Example 31, 6-(5-{4-[(4-Fluorophenyl)hydroxymethyl]piperidin-1-ylmethyl}-4,5-dihydroisoxazol-3-yl)-3H-benzoxazol-2-one]"

# Same assay, conditions: Table 5, 4 nM [3H]-ifenprodil, read-out: IFPNR IC50
row,IC50 [µM],Compound
1,0.023,"O=c1[nH]c2ccc(C3=NOC(CN4CC[C@@H](Cc5ccc(F)cc5)[C@@H](O)C4)C3)cc2o1 (stereo in doubt) [Example 26, 6-{5-[4-(4-Fluorobenzyl)-3-hydroxypiperidin-1-ylmethyl]-4,5-dihydroisoxazol-3-yl}-3H-benzoxazol-2-one]"
2,0.002,O=c1[nH]c2ccc(C3=NOC(CN4CCC(Cc5ccc(F)cc5)CC4)C3)cc2s1 (centres unmarked) [Example 16]

# System: not given
# Test: not given
# Settings: not given
row,melting point [°C],Compound
1,271 to 276,O=c1[nH]c2ccc(C3=NOC(CN4CCC(Cc5ccc(F)cc5)CC4)C3)cc2s1 (centres unmarked) (as salt: HCl) [Example 16]
2,166 to 170,"O=c1[nH]c2ccc(C3=NOC(CN4CCC(O)(Cc5ccccc5)CC4)C3)cc2o1 (centres unmarked) (as salt: HCl) [Example 17, 6-[5-(4-Benzyl-4-hydroxypiperidin-1-ylmethyl)-4,5-dihydroisoxazol-3-yl]-3H-benzoxazol-2-one]"
3,254 to 258,"O=c1[nH]c2ccc(C3=NOC(CCN4CCC(Cc5ccc(F)cc5)CC4)C3)cc2o1 (centres unmarked) (as salt: HCl) [Example 19, 6-(5-{2-[4-(4-Fluorobenzyl)piperidin-1-yl]ethyl}-4,5-dihydroisoxazol-3-yl)-3H-benzoxazol-2-one]"
4,195 to 204,"O=c1[nH]c2ccc(C3=NOC(CN4CCC(O)(Cc5ccc(F)cc5)CC4)C3)cc2o1 (centres unmarked) (as salt: HCl) [Example 20, 6-{5-[4-(4-Fluorobenzyl)-4-hydroxypiperidin-1-ylmethyl]-4,5-dihydroisoxazol-3-yl}-3H-benzoxazol-2-one]"
5,170 to 178,"O=c1[nH]c2ccc(C3=NOC(CN4CCC([S+]([O-])c5ccc(F)cc5)CC4)C3)cc2o1 (centres unmarked) (as salt: HCl) [Example 29, 6-{5-[4-(4-Fluorobenzenesulfinyl)piperidin-1-ylmethyl]-4,5-dihydroisoxazol-3-yl}-3H-benzoxazol-2-one]"
6,186 to 191,"O=c1[nH]c2ccc(C3=NOC(CN4CCC(C(O)c5ccc(F)cc5)CC4)C3)cc2o1 (centres unmarked) (as salt: HCl) [Example 31, 6-(5-{4-[(4-Fluorophenyl)hydroxymethyl]piperidin-1-ylmethyl}-4,5-dihydroisoxazol-3-yl)-3H-benzoxazol-2-one]"
7,146 to 155,"COC(=O)C1(CN2CCC(Cc3ccc(F)cc3)CC2)CC(c2ccc3[nH]c(=O)oc3c2)=NO1 (centres unmarked) (as salt: salt) [Example 23, 5-[4-(4-Fluorobenzyl)piperidin-1-ylmethyl]-3-(2-oxo-2,3-dihydrobenzoxazol-6-yl)-4,5-dihydroisoxazole-5-carboxylic acid methyl ester]"
8,224 to 233,"O=c1[nH]c2ccc(C3=NOC(CN4CC[C@@H](Cc5ccc(F)cc5)[C@@H](O)C4)C3)cc2o1 (stereo in doubt) (as salt: HCl) [Example 26, 6-{5-[4-(4-Fluorobenzyl)-3-hydroxypiperidin-1-ylmethyl]-4,5-dihydroisoxazol-3-yl}-3H-benzoxazol-2-one]"
9,212 to 214,"CCOC(=O)C1(Cc2ccc(F)cc2)CCN(CC2CC(c3ccc4[nH]c(=O)oc4c3)=NO2)CC1 (centres unmarked) [Example 24, 4-(4-Fluorobenzyl)-1-[3-(2-oxo-2,3-dihydrobenzoxazol-6-yl)-4,5-dihydroisoxazol-5-ylmethyl]piperidine-4-carboxylic acid ethyl ester]"
